Assay [1] deals with S. Typhimurium (14028) Δphd-doc::Km strains coexpressing DocSTm. In words: Growth rescue experiment in S. Typhimurium. The assay is classed as cell-based. To be noted: coexpression of DocSTm (pBAD33, arabinose) and Phd construct (pCA24N, basal expression); OD600 over time, M9 minimal medium; average of three independent experiments. Here is the method: The cotransformations above were also performed with an empty pBAD33 plasmid, as a control for the absence of DocSTm expression.
For the growth rescue experiment, overnight (1% tryptone, 0.5% yeast extract, 0.5% NaCl, 1% glucose, 100 μg/mL of carbenicillin, and 34 μg/mL of chloramphenicol) cultures of the generated S. Typhimurium strains were diluted to an OD600 of approximately 0.006 into fresh M9 minimal medium supplemented with 0.5% or 1% arabinose, 0.4% glycerol, 0.4% casamino acids, 100 μg/mL of carbenicillin, and 34 μg/mL of chloramphenicol. Cell growth at a given time was monitored at OD600 with a Genesys 140 Visible Spectrophotometer (Thermo Scientific).

For assay [2], the system named is DocSTm. Description: Differential scanning fluorimetry (thermal stabilisation of Doc). It is filed as binding, S. Typhimurium. Particulars: for melting temperature shift ΔTm: DSF, DocSTm 5 μM, analyte 50 μM, Tm with analyte minus Tm of free DocSTm (42.9 ± 0.9 °C), SYPRO Orange, 20 mM K2HPO4, 50 mM (NH4)2SO4, pH 8.0, triplicate; for Average Tm / Tm: DocSTm 5 µM + 50 µM binder; for Average Tm: average of 3 replicates. In a few lines: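 Thermal shift of 5 μM Doc in 20 mM K2HPO4, 50 mM (NH4)2SO4, pH 8.0 with 3× SYPRO Orange, heated from 25 to 95 °C in a qPCR instrument, in triplicate. Melting temperatures from Boltzmann sigmoid fits of the transition region.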
(In DSF a fluorescence change marks the thermal transition of the protein.)

Assay [3] has as its system DocSTm. Description: Surface plasmon resonance binding to immobilised Doc. Set-up: species or system S. Typhimurium. Particulars: for fold decrease in affinity (given as decrease/loss in Kd) compared with peptide 1: SPR Kd relative to wild-type peptide 1. The method, boiled down: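 Doc captured on an NTA chip at 22 °C in 10 mM HEPES, 500 mM NaCl, 50 μM EDTA, 0.005% TWEEN 20, pH 8.0. Analytes injected as 80 s pulses at 30 μL/min in multicycle or single-cycle kinetics.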
Background: In SPR one partner is held on a chip, and binding of the other changes the refractive index at the surface.

Assay [4] concerns DocSTm. In words: Dot blot phosphorylation assay (EF-Tu phosphorylation by Doc). Particulars: α-pThr, DocSTm 1 μM, EF-TuSTm 3 μM, ATP 1 mM, inhibitor 10 μM to 5 nM (3-fold dilutions), 16 h at RT. The assay is classed as biochemical, S. Typhimurium. Here is the method:
Samples were prepared to a final volume of 10 μL. […] Samples were incubated for 16 h at RT and subsequently spotted on a nitrocellulose membrane. Phosphorylated EF-Tu was detected by immunodecoration using a rabbit monoclonal antiphosphothreonine antibody (Abcam, ab218195) at 1:2000 dilution (1 h at 4 °C), followed by incubation with a goat antirabbit IgG (H+L) HRP conjugate antibody (Advansta) at 1:10 000 dilution (1 h at RT). Chemiluminescence was developed using the HRP Luminata kit (Merck, WBLUR0100) and captured by an ImageQuant LAS4000 Western blot imaging system (Cytiva).

Where [5] appears, read: SPR multicycle, steady-state fit, replicate 1.
Setting [6] is: SPR multicycle, steady-state fit, replicate 2.
The mark [7] stands for this setting: SPR multicycle, steady-state fit, replicate 3.
[8] abbreviates: SPR, multicycle kinetics, steady-state 1:1 fit, mean ± SD of 3 replicates.

Residues, ends and D or L forms follow the SMILES beside them.

Usually Kd stands for the concentration at which binding is half-saturated. Take `CC[C@H](C)[C@H](NC(=O)[C@H](C)NC(=O)[C@H](C)NC(=O)[C@H](Cc1ccccc1)NC(=O)[C@H](CCC(=O)O)NC(=O)[C@H](CC(=O)O)NC(=O)[C@H](CC(=O)O)NC(=O)[C@H](CCSC)NC(=O)[C@H](Cc1c[nH]c2ccccc12)NC(C)=O)C(=O)N[C@@H](CCSC)C(=O)N[C@@H](C)C(=O)N[C@H](C(=O)N[C@@H](C)C(=O)NCC(=O)N[C@@H](CC(N)=O)C(=O)N[C@@H](CCC(=O)O)C(=O)N[C@@H](CC(C)C)C(=O)N[C@@H](CCCNC(=N)N)C(=O)N[C@@H](CCC(=O)O)C(=O)N[C@@H](CC(C)C)C(=O)N[C@@H](C)C(=O)N[C@@H](CC(=O)O)C(=O)N[C@@H](CCCCN)C(=O)O)C(C)C` [peptide 10] (Ac-WMDDEFAAIMAVAGNELRELADK-OH; C-terminus assumed): the “rescue of Salmonella growth from DocSTm-induced growth inhibition (in words)” value in assay [1] is on record as “provided only a partial rescue”. Further, in the assay on DocSTm [2], the “melting temperature shift ΔTm” value came out at 20.9 ± 1.0 °C. The “Average Tm” value in the assay on DocSTm [2] came out at 63.7 ± 0.4 °C. Moreover, the results for the Tm in the assay with DocSTm [2] (replicate 1), in the assay with DocSTm [2] (replicate 2) and in the assay on DocSTm [2] (replicate 3) were 63.3 °C, 63.7 °C and 64.2 °C, respectively. Moreover, in the assay with DocSTm [3], the “fold decrease in affinity (given as decrease/loss in Kd) compared with peptide 1” value is given as roughly 300 fold. Besides, the Kd was determined as 12.2 ± 1.8 nM at DocSTm [3] (setting [5]), 13.1 ± 1.4 nM at DocSTm [3] (setting [6]), 40 ± 2.87 nM on DocSTm [3] (setting [7]) and 21.8 ± 15.8 nM at DocSTm [3] (setting [8]).
Turning to `CC[C@H](C)[C@H](NC(=O)[C@H](C)NC(=O)[C@H](C)NC(=O)[C@H](Cc1ccccc1)NC(=O)[C@H](CCC(=O)O)NC(=O)[C@H](CC(=O)O)NC(=O)[C@H](CC(=O)O)NC(=O)[C@H](CCSC)NC(=O)[C@H](Cc1c[nH]c2ccccc12)NC(C)=O)C(=O)N[C@@H](CCSC)C(=O)N[C@@H](C)C(=O)N[C@H](C(=O)N[C@@H](Cc1c[nH]cn1)C(=O)NCC(=O)N[C@@H](CC(N)=O)C(=O)N[C@@H](CCC(=O)O)C(=O)N[C@@H](C)C(=O)N[C@@H](CCCNC(=N)N)C(=O)N[C@@H](CCC(=O)O)C(=O)N[C@@H](CC(C)C)C(=O)N[C@@H](C)C(=O)N[C@@H](CC(=O)O)C(=O)N[C@@H](CCCCN)C(=O)O)C(C)C` [peptide 14] (Ac-WMDDEFAAIMAVHGNEARELADK-OH; C-terminus assumed), the “rescue of Salmonella growth from DocSTm-induced growth inhibition (in words)” value in assay [1] is on record as “unable to rescue growth”. Besides, in the assay with DocSTm [2], the “melting temperature shift ΔTm” value turned out to be 14.3 ± 0.9 °C. Also, the “Average Tm” value with DocSTm [2] stood at 57.2 ± 0.2 °C. Besides, the results for the Tm with DocSTm [2] (replicate 1), in the assay with DocSTm [2] (replicate 2) and in the assay on DocSTm [2] (replicate 3) were 57.4 °C, 57.2 °C and 57.0 °C, respectively. For the same molecule, in the assay on DocSTm [3], the “fold decrease in affinity (given as decrease/loss in Kd) compared with peptide 1” value is recorded as roughly 300 fold. For the same molecule, the Kd at DocSTm [3] (setting [5]) was 25 ± 0.5 nM; on DocSTm [3] (setting [6]), 23.9 ± 0.94 nM; at DocSTm [3] (setting [7]), 15.4 ± 2.13 nM; on DocSTm [3] (setting [8]) it was 21.4 ± 5.25 nM.
Take “PhdSTm: full-length wild-type Phd antitoxin protein of S. Typhimurium”: in assay [1], the “rescue of Salmonella growth from DocSTm-induced growth inhibition (in words)” value is given as “prevented Doc-induced growth inhibition”. The “Half-life of the complex” value with DocSTm [3] (t1/2 = ln2 / koff, listed as PhdSTm1-73) is recorded as 6.7 ± 1.4 h. The “inhibition of EF-TuSTm phosphorylation by DocSTm (in words)” value in the assay with DocSTm [4] is given as “no phosphorylation was detected”.

These data come from publication PMC9207808 (ACS Chemical Biology, 2022).
